Results taken from the supplement of paper PMC10307832.

How the values were obtained:
Test in all cases: relative viability (nuclei count vs DMSO), 5 days (fraction); higher = more cells survive
[1] = compound: CCn1c(-c2nonc2N)nc2cnc(Oc3cccc(NC(=O)c4ccc(OCCN5CCOCC5)cc4)c3)cc21 + C[C@]1(O)C[C@@H](c2nc(-c3ccc4ccc(-c5ccccc5)nc4c3)c3c(N)nccn32)C1 [Linsitinib] (partner 1 µM)
Method in brief: (§1)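 Lung cancer cell lines were seeded in 1536-well plates and dosed by pin tool the next day, with either a single drug or a fixed anchor-drug dose combined with five library-drug doses (not always all listed) spaced in √10 steps. Five days later, one step fixed the cells and stained their nuclei (final 0.05% Triton X-100, 1% formaldehyde, 1 ug/ml Hoechst), and nuclei were counted on 4× images. Relative viability is the nuclei count in treated wells divided by the count in vehicle wells, and each value is the median of duplicate plates.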

Mirin + OSI-027 = compound: N=C1NC(=O)/C(=C/c2ccc(O)cc2)S1 [Mirin] + COc1cccc2cc(-c3nc([C@H]4CC[C@H](C(=O)O)CC4)n4ncnc(N)c34)[nH]c12 [OSI-027] (partner 0.5 µM)
Method in brief: as §1

Mirin + AZD7762 = compound: N=C1NC(=O)/C(=C/c2ccc(O)cc2)S1 [Mirin] + NC(=O)Nc1cc(-c2cccc(F)c2)sc1C(=O)N[C@H]1CCCNC1 [AZD7762] (partner 0.2 µM)
Method in brief: as §1

Mirin + Pemetrexed = compound: N=C1NC(=O)/C(=C/c2ccc(O)cc2)S1 [Mirin] + Nc1nc2[nH]cc(CCc3ccc(C(=O)N[C@@H](CCC(=O)O)C(=O)O)cc3)c2c(=O)[nH]1 [Pemetrexed] (partner 0.2 µM)
Method in brief: as §1

Cell Line | relative viability ([1]; first compound 0.04 µM) | relative viability ([1]; first compound 0.1265 µM) | relative viability ([1]; first compound 0.4 µM) | relative viability ([1]; first compound 1.265 µM) | relative viability ([1]; first compound 4 µM) | relative viability (Mirin + OSI-027; first compound 0.25 µM) | relative viability (Mirin + OSI-027; first compound 0.7906 µM) | relative viability (Mirin + OSI-027; first compound 2.5 µM) | relative viability (Mirin + OSI-027; first compound 7.906 µM) | relative viability (Mirin + OSI-027; first compound 25 µM) | relative viability (Mirin + AZD7762; first compound 0.25 µM) | relative viability (Mirin + AZD7762; first compound 0.7906 µM) | relative viability (Mirin + AZD7762; first compound 2.5 µM) | relative viability (Mirin + AZD7762; first compound 7.906 µM) | relative viability (Mirin + AZD7762; first compound 25 µM) | relative viability (Mirin + Pemetrexed; first compound 0.25 µM) | relative viability (Mirin + Pemetrexed; first compound 0.7906 µM) | relative viability (Mirin + Pemetrexed; first compound 2.5 µM) | relative viability (Mirin + Pemetrexed; first compound 7.906 µM) | relative viability (Mirin + Pemetrexed; first compound 25 µM)
NCI-H322M | 1.03 | 0.845 | 0.912 | 0.939 | 0.808 | 0.543 | 0.4 | 0.643 | 0.475 | 0.444 | 0.508 | 0.653 | 0.51 | 0.551 | 0.57 | 0.633 | 0.528 | 0.615 | 0.713 | 0.568
PC-3 [JPC-3] | 0.945 | 1 | 0.969 | 0.968 | 0.947 | 0.797 | 0.739 | 0.774 | 0.669 | 0.753 | 0.88 | 0.782 | 0.896 | 0.843 | 0.989 | 1.11 | 1.03 | 1.22 | 1.2 | 1.29
EPLC-272H | 1.35 | 1.12 | 1.14 | 1.1 | 1.18 | 0.339 | – | 0.241 | 0.213 | 0.224 | 0.239 | – | 0.23 | 0.227 | 0.161 | 0.371 | 0.307 | 0.309 | 0.323 | 0.192
A-427 | 1.2 | 1.16 | 1.15 | 1.06 | 1.06 | 0.484 | – | 0.525 | 0.272 | 0.411 | 0.772 | 0.879 | 0.701 | 0.737 | 0.636 | 1 | 0.957 | 1.02 | 0.991 | 0.934
